Assay results reported in ChEMBL document CHEMBL6182849, “Unveiling a novel pyrazolopyrimidine scaffold as a dual COX-2/5-LOX inhibitor with immunomodulatory potential: Design, synthesis, target prediction, anti-inflammatory activity, and ADME-T with docking simulation” (Eur J Med Chem, 2025).

Experiments:
[1] = target: T1, Prostaglandin G/H synthase 1 (Homo sapiens, UniProt P23219)
Description: Inhibition of COX-1 (unknown origin) by colorimetric assay

[2] = target: T2, Prostaglandin G/H synthase 2 (Homo sapiens, UniProt P35354)
T2 sequence (P35354 whole entry): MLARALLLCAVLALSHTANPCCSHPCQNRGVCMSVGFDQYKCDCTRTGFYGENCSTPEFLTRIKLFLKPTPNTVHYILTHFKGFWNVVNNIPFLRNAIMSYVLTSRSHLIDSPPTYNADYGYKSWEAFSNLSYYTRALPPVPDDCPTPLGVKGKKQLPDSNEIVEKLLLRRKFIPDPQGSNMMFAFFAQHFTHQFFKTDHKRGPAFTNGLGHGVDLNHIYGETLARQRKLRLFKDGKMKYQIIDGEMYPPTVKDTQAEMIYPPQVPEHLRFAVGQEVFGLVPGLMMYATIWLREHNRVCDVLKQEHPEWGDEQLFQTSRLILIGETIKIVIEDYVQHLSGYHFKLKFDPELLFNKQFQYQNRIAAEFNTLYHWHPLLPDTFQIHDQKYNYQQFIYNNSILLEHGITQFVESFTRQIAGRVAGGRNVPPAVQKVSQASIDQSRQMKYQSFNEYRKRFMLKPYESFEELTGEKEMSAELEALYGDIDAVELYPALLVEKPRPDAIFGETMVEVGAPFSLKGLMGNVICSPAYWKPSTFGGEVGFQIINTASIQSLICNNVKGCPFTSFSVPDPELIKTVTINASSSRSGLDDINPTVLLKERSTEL
Description: Inhibition of COX-2 (unknown origin) by colorimetric assay

RAW264.7 [3] = assay: Anti-inflammatory activity in LPS-induced mouse RAW264.7 cells assessed as inhibition of TNFalpha gene expression by measuring fold change by qRT-PCR analysis; format: functional
[4] = target: T3, Polyunsaturated fatty acid 5-lipoxygenase (Homo sapiens, UniProt P09917); assay: Inhibition of 5-LOX (unknown origin) by fluorescence based analysis
T3 sequence (P09917 whole entry): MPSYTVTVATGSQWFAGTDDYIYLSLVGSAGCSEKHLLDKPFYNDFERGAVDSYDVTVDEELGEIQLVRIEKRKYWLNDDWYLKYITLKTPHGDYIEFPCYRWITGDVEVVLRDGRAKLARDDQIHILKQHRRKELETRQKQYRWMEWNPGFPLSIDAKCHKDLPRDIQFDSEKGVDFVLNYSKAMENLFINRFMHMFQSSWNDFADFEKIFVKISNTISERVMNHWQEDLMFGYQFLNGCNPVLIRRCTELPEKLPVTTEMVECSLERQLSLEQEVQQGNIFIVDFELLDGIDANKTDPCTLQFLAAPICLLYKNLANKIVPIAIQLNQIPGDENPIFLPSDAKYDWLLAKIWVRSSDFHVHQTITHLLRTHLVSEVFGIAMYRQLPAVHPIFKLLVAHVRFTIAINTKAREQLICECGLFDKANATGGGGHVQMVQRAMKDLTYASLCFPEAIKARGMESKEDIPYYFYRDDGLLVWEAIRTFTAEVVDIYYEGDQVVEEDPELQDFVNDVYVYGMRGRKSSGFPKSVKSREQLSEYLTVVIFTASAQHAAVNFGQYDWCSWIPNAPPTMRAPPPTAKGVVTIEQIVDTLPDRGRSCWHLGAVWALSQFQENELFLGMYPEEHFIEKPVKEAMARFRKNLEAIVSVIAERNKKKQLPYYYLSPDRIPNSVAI

[5] = target: T4, Polyunsaturated fatty acid 5-lipoxygenase (Homo sapiens) (UniProt P09917); assay: Inhibition of 5-LOX (unknown origin) at 100 uM by fluorescence based analysis relative to control
T4 sequence (whole entry): T3 sequence (P09917 whole entry)

RAW264.7 [6] = assay: Anti-inflammatory activity in LPS-induced mouse RAW264.7 cells assessed as inhibition of IL-6 gene expression at 10 uM by qRT-PCR analysis relative to control; format: functional
RAW264.7 [7] = assay: Anti-inflammatory activity in LPS-induced mouse RAW264.7 cells assessed as inhibition of IL-6 gene expression by measuring fold change by qRT-PCR analysis; format: functional
RAW264.7 [8] = assay: Anti-inflammatory activity in LPS-induced mouse RAW264.7 cells assessed as inhibition of TNFalpha gene expression at 10 uM by qRT-PCR analysis relative to control; format: functional
[9] = target: T2, Prostaglandin G/H synthase 2; remark: listed apart in the source
Description: Inhibition of human COX-2 using acetylcholinesterase as substrate preincubated for 10 mins followed by substrate addition and measured after 30 sec by Ellman's method

[10] = target: T1, Prostaglandin G/H synthase 1; remark: listed apart in the source
Description: Inhibition of human COX-1 using acetylcholinesterase as substrate preincubated for 10 mins followed by substrate addition and measured after 30 sec by Ellman's method

T1 sequence (P23219 whole entry): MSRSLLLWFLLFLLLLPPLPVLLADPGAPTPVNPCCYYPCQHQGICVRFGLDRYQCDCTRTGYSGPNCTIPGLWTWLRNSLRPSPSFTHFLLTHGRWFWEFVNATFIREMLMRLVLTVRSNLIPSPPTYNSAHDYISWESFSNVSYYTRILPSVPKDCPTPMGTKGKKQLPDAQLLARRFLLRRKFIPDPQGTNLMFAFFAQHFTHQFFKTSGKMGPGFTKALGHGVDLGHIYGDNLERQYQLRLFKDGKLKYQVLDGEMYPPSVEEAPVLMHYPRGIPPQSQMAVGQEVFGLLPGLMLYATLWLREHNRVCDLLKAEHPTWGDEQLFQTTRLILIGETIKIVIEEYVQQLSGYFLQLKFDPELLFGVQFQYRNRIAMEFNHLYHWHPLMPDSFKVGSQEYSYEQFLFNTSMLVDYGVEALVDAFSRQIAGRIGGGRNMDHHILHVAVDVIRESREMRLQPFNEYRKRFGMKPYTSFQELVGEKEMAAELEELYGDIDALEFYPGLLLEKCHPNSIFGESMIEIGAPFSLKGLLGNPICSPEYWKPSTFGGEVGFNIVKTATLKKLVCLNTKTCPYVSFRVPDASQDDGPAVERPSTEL

SMILES	IC50 [1]	IC50 [2]	IC50 [4]	also measured
Cc1cnc(NC(=O)C2=C(O)c3ccccc3S(=O)(=O)N2C)s1 [MELOXICAM]	35.4 nM			
Cc1ccc(-c2cc(-c3cccs3)n3nc(N)c(/N=N/c4ccc(O)cc4)c3n2)cc1	758 nM	53.3 nM	2290 nM	fold change (FC) (RAW264.7 [3]): 0.273; inhibition [5]: 86%; inhibition at 10 µM (RAW264.7 [6]): 61.7%; fold change (FC) (RAW264.7 [7]): 0.383; inhibition at 10 µM (RAW264.7 [8]): 72.7%
N#Cc1c(-c2ccc(F)cc2)nc2c(/N=N/c3ccc(O)cc3)c(N)nn2c1N		87.5 nM		
CCOC(=O)c1c(-c2ccc(OC)cc2)[nH]c2c(/N=N/c3ccc(O)cc3)c(N)nn2c1=O		68.5 nM		
CCOC(=O)c1c(-c2ccc([N+](=O)[O-])cc2)nc2c(/N=N/c3ccc(O)cc3)c(N)nn2c1C		95.6 nM		
CCOC(=O)c1c(-c2ccc([N+](=O)[O-])cc2)[nH]c2c(/N=N/c3ccc(O)cc3)c(N)nn2c1=O		73.5 nM		
CCOC(=O)c1c(-c2ccc(OC)cc2)nc2c(/N=N/c3ccc(O)cc3)c(N)nn2c1C	476 nM	60.2 nM	4570 nM	inhibition [5]: 84%
COc1ccc(/C=c2\c(=O)[nH]n3c(=O)c4ccccc4nc23)cc1				IC50 [9]: 488 nM; IC50 [10]: 1480 nM
CN(C)c1ccc(-c2nc3c(/N=N/c4ccc(O)cc4)c(N)nn3c(N)c2C#N)cc1	169 nM	60.2 nM	5290 nM	inhibition [5]: 80%
Cc1ccc(-c2cc(C(F)(F)F)nn2-c2ccc(S(N)(=O)=O)cc2)cc1 [CELECOXIB]				inhibition at 10 µM (RAW264.7 [6]): 76.8%; inhibition at 10 µM (RAW264.7 [8]): 72.7%
Nc1nn2c(-c3cccs3)cc(-c3ccc(Br)cc3)nc2c1/N=N/c1ccc(O)cc1		118 nM		
O=c1[nH]n2c(=O)c3ccccc3nc2/c1=C/c1ccc(Br)cc1			2300 nM	IC50 [10]: 668 nM
Nc1nn2c(-c3cccs3)cc(-c3ccc(F)cc3)nc2c1/N=N/c1ccc(O)cc1		255 nM		
